Results on six molecules are retold here after patent US20070253957A1, “Substituted N-Aryl-1H-Pyrazolo[3,4-B]Quinolin-4-Amines and Analogs as Activators of Caspases and Inducers of Apoptosis” (Cytovia, Inc., priority 2004, published 2007).

Some results are limits rather than exact numbers.

The subject of one assay is T-47D. In words: Caspase cascade activation assay (N-(Ac-DEVD)-N'-ethoxycarbonyl-R110 fluorogenic substrate) in T-47D cells. Format: cell-based, Human. The settings on record: 24 h incubation, ratio of net RFU (T=3 h) to that of control samples, 0.16 to 10 μM final. The protocol: Human breast cancer cell lines T-47D was grown according to media component mixtures designated by American Type Culture Collection+10% FCS (mvitrogen Corporation), in a 5% CO2-95% humidity incubator at 37° C. T-47D and ZR-75-1 cells were maintained at a cell density between 30 and 80% confluency and for HL-60 at a cell density of 0.1 to 0.6×10^6 cells/mL. Cells were harvested at 600×g and resuspended at 0.65×10^6 cells/mL into appropriate media+10% FCS. An aliquot of 45 μL of cells was added to a well of a 96-well microtiter plate containing 5 μL of a 10% DMSO in RPMI-1640 media solution containing 1.6 to 100 μM of 1,3-dimethyl-N-(4-methoxyphenyl)-1H-pyrazolo[3,4-b]quinolin-4-amine or other test compound (0.16 to 10 μM final). An aliquot of 45 μL of cells was added to a well of a 96-well microtiter plate containing 5 μL of a 10% DMSO in RPMI-1640 media solution without test compound as the control sample. The samples were mixed by agitation and then incubated at 37° C. for 24 h in a 5% CO2-95% humidity incubator. After incubation, the samples were removed from the incubator and 50 μL of a solution containing 20 μM of N-(Ac-DEVD)-N′-ethoxycarbonyl-R110 fluorogenic substrate (SEQ ID NO:1) (Cytovia, Inc.; U.S. Pat. No. 6,335,429), 20% sucrose (Sigma), 20 mM DTT (Sigma), 200 mM NaCl (Sigma), 40 mM Na PIPES buffer pH 7.2 (Sigma), and 500 μg/mL lysolecithin (Calbiochem) was added. The samples were mixed by agitation and incubated at room temperature. Using a fluorescent plate reader (Model 1420 Wallac Instruments), an initial reading (T=0) was made about 1-2 min after addition of the substrate solution, employing excitation at 485 nm and emission at 530 nm, to determine the background fluorescence of the control sample. After about 3 h of incubation, the samples were read for fluorescence as above (T=3 h).
The Relative Fluorescence Unit values (RFU) were used to calculate the sample readings as follows: RFU(T=3h)−Control RFU(T=0)=Net RFU(T=3h)
The activity of caspase cascade activation was determined by the ratio of the net RFU value for 1,3-dimethyl-N-(4-methoxyphenyl)-1H-pyrazolo[3,4-b]quinolin-4-amine to that of control samples. The EC50 (nM) was determined by a sigmoidal dose-response calculation (Prism 2.0, GraphPad Software Inc.).
Turning to `COc1ccc(Nc2c3ccccc3nc3c2c(C)nn3C)cc1` [Compound A, 1,3-Dimethyl-N-(4-methoxyphenyl)-1H-pyrazolo[3,4-b]quinolin-4-amine], the “Caspase Activity Ratio” value worked out at 3.8.
In the case of `COC(=O)c1ccc(Nc2c3ccccc3nc3c2c(C)nn3C)cc1` [Example 4, 1,3-Dimethyl-N-(4-(methoxycarbonyl)phenyl)-1H-pyrazolo[3,4-b]quinolin-4-amine], the “Caspase Activity Ratio” value is 8.6.
As for `CC(=O)c1ccc(Nc2c3c(nc4ccccc24)CCC3)cc1` [Example 11, N-(4-Acetylphenyl)-2,3-dihydro-1H-cyclopenta[b]quinolin-9-amine], the “Caspase Activity Ratio” value was found to be 9.4.
For the molecule `CCC(=O)c1ccc(Nc2c3ccccc3nc3c2c(C)nn3C)cc1` [Example 23, 1,3-Dimethyl-N-(4-propionylphenyl)-1H-pyrazolo[3,4-b]quinolin-4-amine], the “Caspase Activity Ratio” value stood at 4.2.
Take `CC(=O)c1ccc(Nc2c3cc(C)ccc3nc3c2c(C)nn3C)cc1` [Example 26, N-(4-Acetylphenyl)-1,3,6-trimethyl-1H-pyrazolo[3,4-b]quinolin-4-amine]: the “Caspase Activity Ratio” value came out at 1.1.
`CC(=O)c1ccc(Nc2c3cccc(C)c3nc3c2c(C)nn3C)cc1` [Example 29, N-(4-Acetylphenyl)-1,3,8-trimethyl-1H-pyrazolo[3,4-b]quinolin-4-amme]: the “Caspase Activity Ratio” value was determined as 4.2.

Still in this assay, the particulars now being: 24 h incubation, sigmoidal dose-response calculation, read-out: Caspase Potency EC50.
With `CC(=O)c1ccc(Nc2c3cccc(C)c3nc3c2c(C)nn3C)cc1` [Example 29, N-(4-Acetylphenyl)-1,3,8-trimethyl-1H-pyrazolo[3,4-b]quinolin-4-amme], the EC50 is 663 nM.

Still in this assay, the particulars now being: Homo sapiens, T47D, 24 h incubation, sigmoidal dose-response calculation, read-out: Caspase Potency EC50.
With `COc1ccc(Nc2c3ccccc3nc3c2c(C)nn3C)cc1` [Compound A, 1,3-Dimethyl-N-(4-methoxyphenyl)-1H-pyrazolo[3,4-b]quinolin-4-amine], the EC50 was 793 nM.
Still for that read-out and setting: under `COC(=O)c1ccc(Nc2c3ccccc3nc3c2c(C)nn3C)cc1` [Example 4, 1,3-Dimethyl-N-(4-(methoxycarbonyl)phenyl)-1H-pyrazolo[3,4-b]quinolin-4-amine] stands 333 nM; under `CC(=O)c1ccc(Nc2c3c(nc4ccccc24)CCC3)cc1` [Example 11, N-(4-Acetylphenyl)-2,3-dihydro-1H-cyclopenta[b]quinolin-9-amine], 444 nM; under `CCC(=O)c1ccc(Nc2c3ccccc3nc3c2c(C)nn3C)cc1` [Example 23, 1,3-Dimethyl-N-(4-propionylphenyl)-1H-pyrazolo[3,4-b]quinolin-4-amine], 43 nM.
Same read-out and setting: under `CC(=O)c1ccc(Nc2c3cc(C)ccc3nc3c2c(C)nn3C)cc1` [Example 26, N-(4-Acetylphenyl)-1,3,6-trimethyl-1H-pyrazolo[3,4-b]quinolin-4-amine] stands more than 10000 nM.

The next assay has as its system T-47D. Briefly: Inhibition of cell proliferation (GI50), CellTiter 96 AQUEOUS One Solution, T-47D cells. Format: cell-based, Human. The settings on record: 48 h incubation, dose for 50% inhibition of cell proliferation. The protocol:
(§1) T-47D and MX1 cells were grown and harvested as in Example 49. An aliquot of 90 μL of cells (2.2×10^4 cells/mL) was added to a well of a 96-well micrQtiter plate containing 10 μl of a 10% DMSO in RPMI-1640 media solution containing […] to 100 μM of 1,3-dimethyl-N-(4-methoxyphenyl)-1H-pyrazolo[3,4-b]quinolin-4-amine (0.1 nM to 10 μM final) or other test compound. An aliquot of 90 μL of cells was added to a well of a 96-well microtiter plate containing 10 μL of a 10% DMSO in RPMI-1640 media solution without compound as the control sample for maximal cell proliferation (AMax). The samples were mixed by agitation and then incubated at 37° C. for 48 h in a 5% CO2-95% humidity incubator. After incubation, the samples were removed from the incubator and 20 μL of CellTiter 96 AQUEOUS One Solution Cell Proliferation™ reagent (Promega) was added. The samples were mixed by agitation and incubated at 37° C. for 2-4 h in a 5% CO2-95% humidity incubator. Using an absorbance plate reader (Model 1420 Wallac Instruments), an initial reading (T=0) was made about 1-2 min after addition of the solution, employing absorbance at 490 nm. This determines the possible background absorbance of the test compounds. No absorbance for 1,3-dimethyl-N-(4-methoxyphenyl)-1H-pyrazolo[3,4-b]quinolin-4-amine was found at 490 nm. After the 2-4 h incubation, the samples were read for absorbance as above (ATest).
(§2) Baseline for GI50 (dose for 50% inhibition of cell proliferation) of initial cell numbers were determined by adding an aliquot of 90 μL of cells or 90 μL of media, respectively, to wells of a 96-well microtiter plate containing 10 μL of a 10% DMSO in RPMI-1640 media solution. The samples were mixed by agitation and then incubated at 37° C. for 0.5 h in a 5% CO2-95% humidity incubator. After incubation, the samples were removed from the incubator and 20 μL of CellTiter 96 AQUEOUS One Solution Cell Proliferation™ reagent (Promega) was added. The samples were mixed by agitation and incubated at 37° C. for 2-4 h in a 5% CO2-95% humidity incubator. Absorbance was read as above, (Astart) defining absorbance for initial cell number used as baseline in GI50 determinations.
(§3) GI50 (dose for 50% inhibition of cell proliferation) is the concentration where [(ATest−Astart)/(AMax−AStart)]=0.5.
In the case of `CC(=O)c1ccc(Nc2c3cccc(C)c3nc3c2c(C)nn3C)cc1` [Example 29, N-(4-Acetylphenyl)-1,3,8-trimethyl-1H-pyrazolo[3,4-b]quinolin-4-amme], the concentration for 50% growth inhibition (GI50) turned out to be 399 nM.

The same assay, now with this note: Homo sapiens, T47D, 48 h incubation, dose for 50% inhibition of cell proliferation.
Molecule `COc1ccc(Nc2c3ccccc3nc3c2c(C)nn3C)cc1` [Compound A, 1,3-Dimethyl-N-(4-methoxyphenyl)-1H-pyrazolo[3,4-b]quinolin-4-amine] returned a GI50 of 809 nM.
Same read-out and setting: under `COC(=O)c1ccc(Nc2c3ccccc3nc3c2c(C)nn3C)cc1` [Example 4, 1,3-Dimethyl-N-(4-(methoxycarbonyl)phenyl)-1H-pyrazolo[3,4-b]quinolin-4-amine] stands 519 nM; under `CC(=O)c1ccc(Nc2c3c(nc4ccccc24)CCC3)cc1` [Example 11, N-(4-Acetylphenyl)-2,3-dihydro-1H-cyclopenta[b]quinolin-9-amine], 300 nM; under `CCC(=O)c1ccc(Nc2c3ccccc3nc3c2c(C)nn3C)cc1` [Example 23, 1,3-Dimethyl-N-(4-propionylphenyl)-1H-pyrazolo[3,4-b]quinolin-4-amine], 30 nM.
Turning to `CC(=O)c1ccc(Nc2c3cc(C)ccc3nc3c2c(C)nn3C)cc1` [Example 26, N-(4-Acetylphenyl)-1,3,6-trimethyl-1H-pyrazolo[3,4-b]quinolin-4-amine], the 50% growth inhibitory concentration (GI50) was more than 10000 nM.

The subject of a further assay is MX1. In words: Inhibition of cell proliferation (GI50), CellTiter 96 AQUEOUS One Solution, MX1 cells. The settings on record: 48 h incubation, dose for 50% inhibition of cell proliferation. Format: cell-based. The protocol: as §1, §2, §3
`CC(=O)c1ccc(Nc2c3cccc(C)c3nc3c2c(C)nn3C)cc1` [Example 29, N-(4-Acetylphenyl)-1,3,8-trimethyl-1H-pyrazolo[3,4-b]quinolin-4-amme] returned a 50% growth inhibitory concentration (GI50) of 600 nM.

The assay is the same for the next values; noted with them: Homo sapiens, 48 h incubation, dose for 50% inhibition of cell proliferation.
In the case of `COc1ccc(Nc2c3ccccc3nc3c2c(C)nn3C)cc1` [Compound A, 1,3-Dimethyl-N-(4-methoxyphenyl)-1H-pyrazolo[3,4-b]quinolin-4-amine], the GI50 stood at 800 nM.
Turning to `COC(=O)c1ccc(Nc2c3ccccc3nc3c2c(C)nn3C)cc1` [Example 4, 1,3-Dimethyl-N-(4-(methoxycarbonyl)phenyl)-1H-pyrazolo[3,4-b]quinolin-4-amine], the GI50 is 500 nM.
Molecule `CC(=O)c1ccc(Nc2c3c(nc4ccccc24)CCC3)cc1` [Example 11, N-(4-Acetylphenyl)-2,3-dihydro-1H-cyclopenta[b]quinolin-9-amine] returned a GI50 of 300 nM.
Consider `CCC(=O)c1ccc(Nc2c3ccccc3nc3c2c(C)nn3C)cc1` [Example 23, 1,3-Dimethyl-N-(4-propionylphenyl)-1H-pyrazolo[3,4-b]quinolin-4-amine], for which the GI50 came out at 30 nM.
In turn, `CC(=O)c1ccc(Nc2c3cc(C)ccc3nc3c2c(C)nn3C)cc1` [Example 26, N-(4-Acetylphenyl)-1,3,6-trimethyl-1H-pyrazolo[3,4-b]quinolin-4-amine] showed a GI50 of more than 10000 nM.

One may read the EC50 as the concentration that produces a half-maximal response. Broadly, the GI50 is the concentration giving 50% growth inhibition. Lower therefore signals more potent growth inhibition.
